What was measured:
Assay type in all cases: cell-based
blood coagulation [1] = test: ROTEM measurement of blood collected in BD sodium citrate tube with added reagents; conditions: for blood coagulation (ROTEM): CTI 50 μg/mL, aprotinin 20 μg/mL
Experimental: (§1) To a blood sample collected in a sodium citrate blood collection tube manufactured by BD (containing 3.2% sodium citrate in an amount of 1/10 volume with respect to the blood), the following reagents were added to perform ROTEM measurement.
(2) Calcium chloride (final concentration, 12 mM) and CTI (final concentration, 50 μg/mL)
(3) Calcium chloride (final concentration, 12 mM), CTI (final concentration, 50 μg/mL), and aprotinin (final concentration, 20 μg/mL)
(4) Calcium chloride (final concentration, 12 mM), CTI (final concentration, 50 μg/mL), aprotinin (final concentration, 20 μg/mL), and danaparoid sodium (final concentration, 0.25 U/mL)
The results for (1), (2), (3), and (4) are shown from the left in this order (in the order of initiation of coagulation).
(1) STARTEM reagent (calcium chloride reagent)
(4) Calcium chloride (final concentration, 12 mM), CTI (final concentration, 50 μg/mL), aprotinin (final concentration, 20 μg/mL), and heparin sodium (Mochida Pharmaceutical Co., Ltd.; final concentration, 0.15 U/mL)

[2] = test system: mixed white thrombus formation; test: Thrombogenic capacity (white thrombus formation) in microchip coated with collagen and tissue factor, device of FIG. 2; conditions: tube A; aprotinin 10 μg/mL added before blood collection; calcium chloride 12 mM and CTI 50 μg/mL; flow rate 10 μL/min
Experimental: A method for analyzing the mixed white thrombus formation capacity using a microchip B for analysis of a mixed white thrombus is described below with reference to FIG. 2. The example illustrated in FIG. 2 is a mode in which a blood coagulation inhibitor is added to blood that has passed through a channel. However, this is merely an example, and the microchip may be, of course, in a different mode.
A reservoir (blood storage container) 206 is connected in an inverted position to an inlet 204 of the microchip B, and a liquid transfer pump 207 is connected to the reservoir 206. To the liquid transfer pump 207, a pressure sensor 208 is connected.
As the liquid for a liquid transfer pump 207, a liquid having a specific gravity lower than that of blood, such as mineral oil or […] is used. This liquid is introduced using the liquid transfer pump 207 into a reservoir 206 in which blood is preliminarily filled, thereby overlaying the liquid on the blood. […] By measuring the inflow pressure of the liquid, the inflow pressure of the blood into the channel can be indirectly measured.
More specifically, mineral oil is injected from the liquid transfer pump 207 into the reservoir 206. […] By providing the narrow section, high-shear-stress-induced platelet aggregation can be monitored, and thrombus formation in atherothrombosis can be reproduced, which is preferred. […]

blood coagulation [3] = test: ROTEM measurement with STARTEM and EXTEM reagents (Comparative Example); conditions: (1) alone, (2) NovoSeven 2 μg/mL, (3) TFPI 10 μg/mL
Experimental: as §1
(1) STARTEM reagent and EXTEM reagent (trademark; a test reagent containing tissue factor as a major component)
(2) STARTEM reagent, EXTEM reagent, and NovoSeven (Novo Nordisk Pharma Ltd.; final concentration, 2 μg/mL)
(3) STARTEM reagent, EXTEM reagent, and TFPI (final concentration, 10 μg/mL)

blood coagulation [4] = test: ROTEM measurement, BD sodium citrate tube, calcium chloride, CTI, aprotinin, heparin sodium and prothrombin reagent (tissue factor); conditions: (1) no hemostatic agent; (2) NovoSeven 2 μg/mL; (3) TFPI 10 μg/mL; HemosIL RecombiPlasTin 0.04%
Experimental: as §1
(1) Calcium chloride (final concentration, 12 mM), CTI (final concentration, 50 μg/mL), aprotinin (final concentration, 20 μg/mL), heparin sodium (final concentration, 0.15 U/mL), and a prothrombin reagent (addition of HemosIL RecombiPlasTin (15 μg/mL) to a final concentration of about 0.04%)
(2) Calcium chloride (final concentration, 12 mM), CTI (final concentration, 50 μg/mL), aprotinin (final concentration, 20 μg/mL), heparin sodium (final concentration, 0.15 U/mL), NovoSeven (final concentration, 2 μg/mL), and a prothrombin reagent (addition of HemosIL RecombiPlasTin to a final concentration of 0.04%) […]

[5] = test system: platelet thrombus formation; test: Flow measurement of platelet thrombus formation in collagen-coated microchip, device of FIG. 1; conditions: blood collected in BD heparin blood collection tube, directly measured; 18 μL/min
Description: First, a method for analyzing the platelet thrombus formation capacity using a microchip A for analysis of a platelet thrombus is described below with reference to FIG. 1. In the example illustrated in FIG. 1, two channels are provided in parallel. However, this is merely an example, and, of course, the microchip may have a single channel, or may be in a different mode.
Reservoirs (blood storage containers) 106 and 116 are connected in an inverted position to a first inlet 104 and a second inlet 114, respectively, of the microchip A, and liquid transfer pumps 107, and 117 are connected to the reservoirs 106 and 116. To the liquid transfer pumps 107 and 117, pressure sensors 108 and 118 are connected. […]
As the liquid for the liquid transfer pumps 107 and 117, a liquid having a specific gravity lower than that of blood, such as mineral oil or […] is used. […] By measuring the inflow pressure of the liquid, the inflow pressure of the blood into each channel can be indirectly measured. […]
Thrombus formation by platelets occurs when the blood passes through the reaction sections, and increases in the inflow pressure due to this thrombus formation can be observed. By detecting the patterns of these pressure increases using the pressure sensors, and comparing the detected patterns, blood properties, that is, the platelet thrombus formation capacity, can be evaluated. […]

## aprotinin
Blood coagulation [1]; aprotinin 20 μg/mL together with calcium chloride 12 mM and CTI 50 μg/mL
  initiation of coagulation (ROTEM): suppressed initiation of blood coagulation
[2]
  thrombogenic capacity in the presence of blood flow: did not influence the data

## Ac-FQSKpNVHVDGYFERLXAKL-NH2 [TFPI]
Blood coagulation [3]
  ROTEM waveform versus reagent alone: showed the same waveform
Blood coagulation [4]
  order of coagulation (ROTEM): Coagulation occurred in the order of (2), (3), and (1)

## danaparoid sodium
Blood coagulation [1]; danaparoid sodium 0.25 U/mL further added to calcium chloride 12 mM
  blood coagulation (ROTEM): complete suppression of blood coagulation

## heparin
[5]
  pressure increase due to platelet thrombus formation: hardly observed

## heparin sodium
Blood coagulation [1]; heparin sodium 0.15 U/mL further added to calcium chloride 12 mM
  blood coagulation (ROTEM): complete suppression of blood coagulation

— patent publication US11480559B2, “Blood collection tube, reagent, and method for analyzing blood characteristics using same” (FUJIMORI KOGYO CO., LTD., priority 2016, dated 2022)
